Earlier results in patent EP4015634A1, “SIRNA AND COMPOSITIONS FOR PROPHYLACTIC AND THERAPEUTIC TREATMENT OF VIRUS DISEASES” (SYLENTIS, S.A.U., priority 2020, dated 2022).
*1 amine or outer side, *2 acyl side, *3 side chain or, on linkers, in order; H or OH if unused. Where a SMILES comes first, the peptide text is derived from it. Bridges are numbered along the chain shown (N, C = ends). [ ]: non-standard residue; d: D form. The star is where a group is joined. X1 = CC[C@H](C)[C@@H](N[*:1])[C@@H](O)CC(=O)O[C@H](C(=O)[C@H](C)C(=O)[*:2])C(C)C; NMeY = CN[C@@H](Cc1ccc(O)cc1)C(=O)O; dNMeL = CN[C@H](CC(C)C)C(=O)O; Pyruvoyl = CC(=O)C(=O)*

Experiments:
SARS-CoV-2 = conditions: in vitro studies
patients with COVID-19 = conditions: phase I

CC[C@H](C)[C@H]1NC(=O)[C@@H](NC(=O)[C@@H](CC(C)C)N(C)C(=O)[C@@H]2CCCN2C(=O)C(C)=O)[C@@H](C)OC(=O)[C@H](Cc2ccc(OC)cc2)N(C)C(=O)[C@@H]2CCCN2C(=O)[C@H](CC(C)C)NC(=O)[C@@H](C)C(=O)[C@H](C(C)C)OC(=O)C[C@@H]1O [plitidepsin] (Pyruvoyl-P[dNMeL]T[X1]LP[NMeY](Me); ester 3-C)
SARS-CoV-2 viral load in vitro (SARS-CoV-2): reduced SARS-CoV-2 viral load at nanomolar concentrations | primary safety endpoint (patients with COVID-19; patients with COVID-19 who required hospitalization): met the primary safety endpoint | preliminary secondary endpoints of efficacy (patients with COVID-19; treated patients): substantial reduction in viral load and the C-reactive protein
